Results as given in PubChem BioAssay (NCI).
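Each compound was tested at five concentrations against cells in 96-well plates for 48 hours. GI50 = concentration required for 50% inhibition of growth. The concentration for full growth arrest is given as TGI.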

What was measured:
Experiment in all cases: NCI anticancer screen, dose series, 48 h
[1] = test system: 786-0 renal
[2] = test system: SK-MEL-28 melanoma
[3] = test system: SK-MEL-5 melanoma
[4] = test system: SN12C renal
[5] = test system: UACC-257 melanoma
[6] = test system: BT-549 breast
[7] = test system: HCT-116 colon
[8] = test system: T-47D breast
[9] = test system: LOX IMVI melanoma
[10] = test system: MALME-3M melanoma
[11] = test system: COLO 205 colon
[12] = test system: HL-60(TB) leukemia
[13] = test system: HS 578T breast
[14] = test system: NCI-H226 lung
[15] = test system: SF-295 CNS
[16] = test system: HOP-92 NSCLC
[17] = test system: OVCAR-4 ovarian
[18] = test system: HCC-2998 colon
[19] = test system: RXF 393 renal
[20] = test system: OVCAR-5 ovarian
[21] = test system: SF-268 CNS
[22] = test system: K-562 leukemia
[23] = test system: HCT-15 colon
[24] = test system: SK-MEL-2 melanoma
[25] = test system: OVCAR-8 ovarian
[26] = test system: SF-539 CNS
[27] = test system: U251 CNS
[28] = test system: A498 renal
[29] = test system: ACHN renal
[30] = test system: M14 melanoma
[31] = test system: DU-145 prostate
[32] = test system: MDA-MB-468 breast
[33] = test system: IGROV1 ovarian
[34] = test system: SNB-19 CNS
[35] = test system: NCI-H522 lung
[36] = test system: SR leukemia
[37] = test system: HOP-62 NSCLC
[38] = test system: MDA-MB-231 breast
[39] = test system: SNB-75 CNS
[40] = test system: NCI-H460 lung
[41] = test system: UACC-62 melanoma
[42] = test system: UO-31 renal
[43] = test system: A549 NSCLC
[44] = test system: MCF7 breast
[45] = test system: KM12 colon
[46] = test system: NCI-H23 lung
[47] = test system: EKVX NSCLC
[48] = test system: RPMI-8226 leukemia
[49] = test system: SW-620 colon
[50] = test system: CAKI-1 renal
[51] = test system: NCI/ADR-RES ovarian
[52] = test system: SK-OV-3 ovarian
[53] = test system: OVCAR-3 ovarian
[54] = test system: MOLT-4 leukemia
[55] = test system: HT29 colon
[56] = test system: MDA-MB-435
[57] = test system: TK-10 renal
[58] = test system: CCRF-CEM leukemia
[59] = test system: PC-3 prostate

O=C(CNc1nc(-c2ccccc2)cs1)Nc1ccc([N+](=O)[O-])cc1Cl
GI50 [1]: 3.3 µM | TGI [1]: 13.2 µM | GI50 [2]: 12.1 µM | TGI [2]: 24.5 µM | GI50 [3]: 3.66 µM | TGI [3]: 14 µM | GI50 [4]: 3.72 µM | TGI [4]: 13.9 µM | GI50 [5]: 7.55 µM | TGI [5]: 20.2 µM | GI50 [6]: 2.29 µM | TGI [6]: 7.66 µM | GI50 [7]: 3.36 µM | TGI [7]: 12.6 µM | GI50 [8]: 3.37 µM | TGI [8]: 13.5 µM | GI50 [9]: 2.96 µM | TGI [9]: 11.7 µM | GI50 [10]: 9 µM | TGI [10]: 21 µM | GI50 [11]: 11.5 µM | TGI [11]: 23.7 µM | GI50 [12]: 2.8 µM | TGI [12]: 11 µM | GI50 [13]: 3.74 µM | TGI [13]: 15.1 µM | GI50 [14]: 6.78 µM | TGI [14]: 19.3 µM | GI50 [15]: 4.47 µM | TGI [15]: 16.6 µM | GI50 [16]: 4.28 µM | TGI [16]: 16.7 µM | GI50 [17]: 6.55 µM | TGI [17]: 19.5 µM | GI50 [18]: 6.94 µM | TGI [18]: 19.7 µM | GI50 [19]: 4.38 µM | TGI [19]: 15 µM | GI50 [20]: 6.18 µM | TGI [20]: 20.2 µM | GI50 [21]: 3.98 µM | TGI [21]: 16.2 µM | GI50 [22]: 3.42 µM | TGI [22]: 13.9 µM | GI50 [23]: 3.34 µM | TGI [23]: 12.8 µM | GI50 [24]: 8.86 µM | TGI [24]: 21 µM | GI50 [25]: 5.69 µM | TGI [25]: 18.3 µM | GI50 [26]: 5.36 µM | TGI [26]: 17.6 µM | GI50 [27]: 4.42 µM | TGI [27]: 16.8 µM | GI50 [28]: 7.11 µM | TGI [28]: 20.1 µM | GI50 [29]: 5.51 µM | TGI [29]: 18.2 µM | GI50 [30]: 3.6 µM | TGI [30]: 13.5 µM | GI50 [31]: 10.6 µM | TGI [31]: 22.5 µM | GI50 [32]: 1.96 µM | TGI [32]: 4.88 µM | GI50 [33]: 4.29 µM | TGI [33]: 15.5 µM | GI50 [34]: 7.71 µM | TGI [34]: 20.3 µM | GI50 [35]: 2.9 µM | TGI [35]: 12 µM | GI50 [36]: 4.67 µM | TGI [36]: 17.4 µM | GI50 [37]: 7.02 µM | TGI [37]: 20 µM | GI50 [38]: 4.94 µM | TGI [38]: 17.1 µM | GI50 [39]: 1.73 µM | TGI [39]: 9.94 µM | GI50 [40]: 9.34 µM | TGI [40]: 21.2 µM | GI50 [41]: 3.6 µM | TGI [41]: 15.4 µM | GI50 [42]: 3.37 µM | TGI [42]: 15.5 µM | GI50 [43]: 6.05 µM | TGI [43]: 19 µM | GI50 [44]: 3.26 µM | TGI [44]: 13.4 µM | GI50 [45]: 4.17 µM | TGI [45]: 14.9 µM | GI50 [46]: 4.6 µM | TGI [46]: 17 µM | GI50 [47]: 3.44 µM | TGI [47]: 14.3 µM | GI50 [48]: 2.99 µM | TGI [48]: 13.2 µM | GI50 [49]: 4.47 µM | TGI [49]: 16.2 µM | GI50 [50]: 3.34 µM | TGI [50]: 14.5 µM | GI50 [51]: 4.11 µM | TGI [51]: 14.6 µM | GI50 [52]: 6.18 µM | TGI [52]: 19.2 µM | GI50 [53]: 3.62 µM | TGI [53]: 14.1 µM | GI50 [54]: 3.17 µM | TGI [54]: 11.6 µM | GI50 [55]: 7.63 µM | TGI [55]: 20.4 µM | GI50 [56]: 4.88 µM | TGI [56]: 16.9 µM | GI50 [57]: 8.04 µM | TGI [57]: 20.5 µM | GI50 [58]: 3.05 µM | TGI [58]: 12.2 µM | GI50 [59]: 5.17 µM | TGI [59]: 17.9 µM
